What is called IC50 is the concentration at which inhibition is half-maximal.

Read-outs that look alike come from different tables or passages of the source.

The values that follow come from patent publication EP2794556B1, “BIS-(ARYL/HETEROARYL)-METHYLENE COMPOUNDS, PHARMACEUTICAL COMPOSITIONS CONTAINING SAME AND THEIR USE FOR TREATING CANCER” (Gleason, James L., priority 2011, dated 2013).

Series [1] relates to SCC4 cells. Briefly: MTS cell proliferation assay. The series is classed as cell-based, human. Particulars: vitamin D resistant SCC4 cells, Figures 7c, 8 and 9. The source says:
Dose-dependent effects of compounds on cell cycle progression was monitored using a CellTiter 96 Aqueous Non-Radioactive Cell Proliferation Assay Kit (Promega). The assay composed of solutions of a novel tetrazolium compound (MTS) and an electron coupling reagent (phenazine methosulfate; PMS). MTS is reduced by metabolically active cells into a soluble formazan product that absorbs at 490nm. The quantity of formazan product absorbing at 490nm is directly proportional to the number of living cells.

Series [2] has as its system SCC4 cells. Briefly: LDH cytotoxicity assay. Conditions: vitamin D resistant SCC4 cells, Figures 10 and 11. In kind it is cell-based, human. On the procedure: The cytotoxic effects of compounds were screened using a Cytotoxicity Assay Kit (Cayman Chemical), which measures release of the soluble […] enzyme lactate dehydrogenase (LDH) from dying cells into the culture medium using a coupled two-step reaction. LDH in the media catalyzes the reduction of NAD+ to NADH and H+ by oxidation of lactate to pyruvate. LDH-catalyzed NADH production is then measured by following diaphorase catalyzed NADH-dependent reduction of a tetrazolium salt (INT) to highly-colored formazan which absorbs strongly at 490-520 nm.
The proliferation assays above indicated the cessation of growth.

Another series addresses T1, HDAC6 (Homo sapiens, UniProt Q9UBN7).
T1 sequence (Q9UBN7 1-1215): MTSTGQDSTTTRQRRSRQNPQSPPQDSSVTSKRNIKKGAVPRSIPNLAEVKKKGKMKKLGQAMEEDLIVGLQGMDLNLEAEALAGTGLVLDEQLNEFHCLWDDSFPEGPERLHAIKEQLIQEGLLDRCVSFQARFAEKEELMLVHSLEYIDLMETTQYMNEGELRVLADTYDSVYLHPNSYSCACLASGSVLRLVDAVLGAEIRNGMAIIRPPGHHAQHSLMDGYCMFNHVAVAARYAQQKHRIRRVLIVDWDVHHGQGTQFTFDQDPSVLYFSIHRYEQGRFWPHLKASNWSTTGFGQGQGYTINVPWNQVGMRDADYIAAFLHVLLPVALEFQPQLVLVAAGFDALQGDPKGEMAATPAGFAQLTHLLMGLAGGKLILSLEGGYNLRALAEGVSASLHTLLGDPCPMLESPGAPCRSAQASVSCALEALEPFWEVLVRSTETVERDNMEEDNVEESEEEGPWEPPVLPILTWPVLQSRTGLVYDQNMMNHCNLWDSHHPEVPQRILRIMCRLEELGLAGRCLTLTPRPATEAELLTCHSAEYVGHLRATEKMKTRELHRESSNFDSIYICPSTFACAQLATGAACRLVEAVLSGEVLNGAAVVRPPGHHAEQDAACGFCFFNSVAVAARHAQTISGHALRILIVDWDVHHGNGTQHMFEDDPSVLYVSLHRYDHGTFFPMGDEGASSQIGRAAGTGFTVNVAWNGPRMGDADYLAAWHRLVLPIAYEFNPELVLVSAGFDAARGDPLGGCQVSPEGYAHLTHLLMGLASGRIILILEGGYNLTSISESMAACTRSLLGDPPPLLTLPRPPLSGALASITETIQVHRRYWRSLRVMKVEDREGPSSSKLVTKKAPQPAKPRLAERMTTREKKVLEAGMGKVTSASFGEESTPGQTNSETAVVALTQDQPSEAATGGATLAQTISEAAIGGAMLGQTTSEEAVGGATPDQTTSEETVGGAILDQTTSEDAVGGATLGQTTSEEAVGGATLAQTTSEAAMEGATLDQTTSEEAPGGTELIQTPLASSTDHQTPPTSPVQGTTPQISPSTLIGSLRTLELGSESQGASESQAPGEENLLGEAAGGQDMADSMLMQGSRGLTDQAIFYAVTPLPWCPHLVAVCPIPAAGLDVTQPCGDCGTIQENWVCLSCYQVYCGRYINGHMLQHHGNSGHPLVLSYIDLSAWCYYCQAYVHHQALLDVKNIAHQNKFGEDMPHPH
Briefly: Fluorogenic HDAC inhibition assay, purified enzyme.

Another series relates to AT84 cells. The experiment in a line: EdU cell growth assay. Conditions: 1,25D-sensitive AT84 cells, Fig. 2d.
Series [3] concerns the target T2, VDR (Homo sapiens, UniProt P11473).
T2 construct: endogenous in cells; host or cells: SCC25 human head and neck squamous carcinoma cells
T2 sequence (P11473 1-427): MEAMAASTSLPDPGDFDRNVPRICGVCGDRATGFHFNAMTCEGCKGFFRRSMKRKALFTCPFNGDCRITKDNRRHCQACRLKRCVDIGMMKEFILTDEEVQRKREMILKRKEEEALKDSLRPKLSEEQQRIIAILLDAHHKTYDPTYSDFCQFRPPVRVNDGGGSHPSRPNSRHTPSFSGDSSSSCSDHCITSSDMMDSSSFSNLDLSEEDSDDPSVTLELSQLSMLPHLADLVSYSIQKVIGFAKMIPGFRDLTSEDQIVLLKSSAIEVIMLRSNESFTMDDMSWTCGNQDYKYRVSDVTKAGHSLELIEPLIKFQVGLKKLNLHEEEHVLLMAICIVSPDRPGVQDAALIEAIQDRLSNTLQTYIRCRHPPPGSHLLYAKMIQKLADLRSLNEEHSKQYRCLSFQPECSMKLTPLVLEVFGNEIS
Briefly: VDR agonism by induction of CYP24 gene expression (RT/PCR). In kind it is cell-based. Particulars: for VDR agonism by induction of CYP24 gene expression: screen at 10 µM, Fig. 1a; for VDR agonism by induction of CYP24 gene expression / VDR agonist activity and potency, induction of CYP24 gene expression: SCC25 cells; for VDR agonist activity and potency, induction of CYP24 gene expression: Fig. 1b, 1d. On the procedure: Cell culture. Human head and neck squamous carcinoma cell lines SCC4 and SCC45 and mouse HNSCC line AT84 were purchased from American Type Culture Collection (Manassas, VA) and cultured under recommended conditions. Cells were split at 60-70% confluence, as follows: cells were washed with filtered PBS, split with a 5-10 min incubation with 1 ml Trypsin-EDTA (Invitrogen, Carlsbad, CA) in PBS, collected with medium. Following centrifugation, the supernatant was removed. Cell pellets were resuspended with DMEM-F12, and distributed on fresh media-containing dishes. For treatments, AT84 cells were split and 24h later medium was changed to DMEM + 10% charcoal-stripped FBS.
RNA isolation and RT/PCR analysis. […]. Proc. Nat. Acad. Sci. U.S.A. 105, 8250-55. and Lamblin, M.et al Bioorganic & Medicinal Chemistry (2010) 18:4119-4137. After treatment, cells were washed with PBS, homogenized with 1ml TRIzol Reagent (Invitrogen, Carlsbad, CA), kept at room temperature for 2-5 min, collected and kept at -80 °C for at least 1h. After, thawing 0.2 ml chloroform was added. After vigorous mixing and storing for 10min, mixtures were centrifuged (10,000rpm, 15 min, 4 °C) and the upper transparent layer was transferred to a new tube. 0.5 ml isopropanol was added and the new solution was mixed. After centrifuging at 4 °C, the supernatant was discarded and 1ml of 75% ethanol was added. After centrifuging and discarding the supernatant, the pellet was air-dried for 5-10 min, and then dissolved in ddH2O. RNA concentrations were measured using a spectrophotometer, and 1-3µg of RNA were loaded for reverse transcriptase reactions (total volume: 20 µl). 80µl of ddH2O was added to the RT-product, and 1.5µl of that was used as template for the PCR reaction. Reverse transcriptase (Super Script II) was purchased from Invitrogen (Carlsbad, CA). DNA polymerase and dNTP's were ordered from Fermentas (Glen Burnie, MD).
(§1) Test compounds (10 µM) were first screened for VDR agonism by analysis of induction of CYP24 gene expression in 1,25D-sensitive human SCC25 cells. […]. Consistent with binding to the VDR, induction of CYP24 by compound JF-B01, compound JF-B53 or compound 16 (JF-B54) was blocked (Fig. 1c). […]

The test system of series [4] is SCC4 cells. Briefly: EdU cell growth assay. Conditions: 1,25D-resistant SCC4 cells, Fig. 2e, f.
Description: (§2) EdU cell growth assay. Click-iT EdU Alexa Fluor high-throughput imaging (HCS) assay for cell proliferation. HCS assays were performed on AT84 mouse squamous carcinoma cell line (ATCC) following the manufacturer's instruction (Molecular Probes, Invitrogen). […] All samples were in triplicate.
The next series deals with HDAC3 (Homo sapiens, UniProt O15379). The experiment in a line: Fluorogenic HDAC inhibition assay, purified enzyme.
In series [5] the target is T2, VDR. The experiment in a line: Chromatin immunoprecipitation (ChIP) assay, CYP24 promoter, SCC25 cells. In kind it is cell-based. Particulars: Fig. 1e. On the procedure: Chromatin immunoprecipitation assays. ChIP assays were performed with sonicated extracts of SCC25 cells as described (see Wang, T.-T. et al. J Immunol (2004) 173:2909-2912). […] Immunoprecipitations were performed using normal rabbit IgG, anti-VDR antibody (c-20) (Santa Cruz Biotechnology, Santa Cruz, CA). […].
as §1

HDAC3, sequence (O15379 whole entry, species assumed): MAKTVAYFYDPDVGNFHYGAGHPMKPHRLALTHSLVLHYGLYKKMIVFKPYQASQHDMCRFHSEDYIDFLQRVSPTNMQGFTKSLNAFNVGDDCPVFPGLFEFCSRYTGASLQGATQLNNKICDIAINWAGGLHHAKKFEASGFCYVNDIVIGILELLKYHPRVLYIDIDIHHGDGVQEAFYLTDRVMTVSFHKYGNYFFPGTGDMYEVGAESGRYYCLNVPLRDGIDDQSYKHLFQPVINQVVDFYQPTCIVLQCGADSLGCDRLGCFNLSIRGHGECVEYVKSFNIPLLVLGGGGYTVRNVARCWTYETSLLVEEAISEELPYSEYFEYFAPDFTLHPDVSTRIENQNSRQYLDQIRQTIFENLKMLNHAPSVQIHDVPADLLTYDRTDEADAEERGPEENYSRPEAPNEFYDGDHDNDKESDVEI
HDAC3, sequence (Q9Y618 395-489 partner limits assumed, species assumed): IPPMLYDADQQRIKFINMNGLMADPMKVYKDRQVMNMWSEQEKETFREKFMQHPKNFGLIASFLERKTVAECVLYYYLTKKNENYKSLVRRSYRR
Description for AT84 cells: as §2
Description for HDAC3: (§3) Fluorogenic HDAC inhibition assay. Boc-Lys(Ac)-7-amino-4-methylcoumarin (Boc-Lys(Ac)-AMC) was used as substrate for the HDAC assays. […] Trypsin was used to stop the reaction, releasing free AMC. The trypsin solution was prepared as follow: trypsin was dissolved in HDAC buffer to give a concentration of 10 mg/mL. Release of AMC was monitored by measuring the fluorescence at 460 nm (lex = 390 nm) with a microplate reader (SpectraMax Gemini) at 37 °C. The AMC signals were recorded against a blank with buffer, substrate and trypsin but without the enzyme. All experiments were carried out at least in triplicate.
(§4) For standard HDAC assays, 50 µL of HDAC buffer was mixed with 10 µL of diluted enzyme solution in HDAC buffer at room temperature. The HDAC reaction was started by adding 40 µL of substrate solution in HDAC buffer followed by 30 min of incubation with stirring at 37 °C. The reaction was stopped by adding 100 µL of trypsin solution. After a 10 min incubation with stirring at 37 °C, the release of AMC was monitored by measuring the fluorescence. For HDAC inhibition assays, inhibitor diluted in 50 µL of HDAC buffer was mixed with 10 µL of diluted enzyme solution in HDAC buffer at room temperature. The HDAC reaction was started by adding 40 µL of substrate solution in HDAC buffer followed by 30 min of incubation with stirring at 37 °C. The reaction was stopped by adding 100 µL of trypsin solution. After a 10 min incubation with stirring at 37 °C, the release of AMC was monitored by measuring the fluorescence.
Description for HDAC6: as §3, §4

As to `CCC(CC)(c1ccc(OCC(O)C(C)(C)C)c(C)c1)c1c[nH]c2cc(CCC(=O)NO)ccc12` (stereo not drawn) [DK-222, N-hydroxy-3-(3-(3-(4-(2-hydroxy-3,3-dimethylbutoxy)-3-methylphenyl)pentan-3-yl)-1H-indol-6-yl)propanamide], the antiproliferative potency result in the series on SCC4 cells [1] was “low micromolar potency”. Moreover, in the series on SCC4 cells [2], the “cytotoxicity, LDH release” value is “good cytotoxicity”.

For `CCC(CC)(c1ccc(OCC(O)C(C)(C)C)c(C)c1)c1ccc(OCC(=O)NO)c(Br)c1` (stereo not drawn) [DK-309, 2-(2-bromo-4-(3-(4-(2-hydroxy-3,3-dimethylbutoxy)-3-methylphenyl)pentan-3-yl)phenoxy)-N-hydroxyacetamide], the “cytotoxicity, LDH release” value in the series with SCC4 cells [2] is listed as “good cytotoxicity”.

As for `CCC(CC)(c1ccc(OCC(=O)NO)cc1)c1ccc(OCC(O)C(C)(C)C)c(C)c1` (stereo not drawn) [DK-366, N-hydroxy-2-(4-(3-(4-(2-hydroxy-3,3-dimethylbutoxy)-3-methylphenyl)pentan-3-yl)phenoxy)acetamide], in the series with SCC4 cells [1], the antiproliferative potency entry is “low micromolar potency”. This molecule also registered a half-maximal inhibitory concentration (IC50) on HDAC6 of 6.6 to 8.2 µM. The “cytotoxicity, LDH release” value with SCC4 cells [2] was “good cytotoxicity”.

Turning to `CCC(CC)(c1ccc(OCC(=O)NO)c(C)c1)c1ccc(OCC(=O)NO)c(C)c1` [JF-B06], the IC50 came to 4.7 µM on HDAC6 and 4.7 µM at HDAC6 (read-out: HDAC6 IC50, purified enzyme in vitro). Also, in the series with AT84 cells, the “inhibition of proliferation, EdU incorporation” value (shortened to “inhibition of proliferation”) was “failed to block AT84 proliferation”. In addition, the “VDR agonism by induction of CYP24 gene expression” value on VDR [3] was “completely inactive”.

Consider `CCC(CC)(c1ccc(OCC(=O)NO)c(C)c1)c1ccc(OCC(CO)CO)c(C)c1` [JF-B21], for which the “inhibition of proliferation” value is given as “failed to block SCC4 proliferation” in the series with SCC4 cells [4] and “failed to block AT84 proliferation” in the series on AT84 cells. The concentration for half-maximal inhibition (IC50) amounted to 36.1 µM at HDAC3 and 37.9 µM against HDAC6. Further, the “VDR agonism by induction of CYP24 gene expression” value at VDR [3] is “completely inactive”.

In the case of `CCC(CC)(c1ccc(OCC(=O)NO)c(C)c1)c1ccc(OCC(C)(C)O)c(C)c1` [JF-B53, N-Hydroxy-2-(4-(3-(4-(2-hydroxy-2-methylpropoxy)-3-methylphenyl)pentan-3-yl)-2-methylphenoxy)acetamide], the “inhibition of proliferation” value in the series with SCC4 cells [4] is “partially blocked EdU incorporation”. Also, the IC50 on HDAC3 is 17 µM; on HDAC6, 33.3 µM. At VDR [3] (Fig. 1c, blocking agent not given), the “induction of CYP24 by the compound was blocked” value is reported as “blocked”. At VDR [3], the “VDR agonist activity and potency, induction of CYP24 gene expression” value (shortened to “VDR agonist activity and potency”) is recorded as “VDR agonist activity, but with reduced potency”.

Regarding `CCC(CC)(c1ccc(OCC(=O)O)c(C)c1)c1ccc(OCC(=O)C(C)(C)C)c(C)c1` [JF-C11], the “inhibition of proliferation” value with SCC4 cells [4] was “failed to block SCC4 proliferation”. Also, at VDR [3], the “VDR agonist activity and potency” value is “some agonist activity”.

Take `CCC(CC)(c1ccc(OCC(=O)NO)c(C)c1)c1ccc(OC[C@H](O)C(C)(C)C)c(C)c1` [JF-C71, N-Hydroxy-2-(4-(3-(4-((2R)-hydroxy-3,3-dimethylbutoxy)-3-methylphenyl)pentan-3-yl)-2-methylphenoxy)acetamide]: in the series on SCC4 cells [1], the antiproliferative potency result is listed as “low micromolar potency”. Besides, the values for the IC50 against HDAC3 and at HDAC6 were 22 µM and 26.1 µM, respectively. Further, the “binding of the VDR to the vitamin D response element in the proximal promoter of the CYP24 gene” value on VDR [5] is reported as “induced binding of the VDR”. At VDR [3], the “VDR agonist activity and potency” value is on record as “VDR agonists with similar potencies”.

On to `CCC(CC)(c1ccc(OCC(=O)NO)c(C)c1)c1ccc(OC[C@@H](O)C(C)(C)C)c(C)c1` [JF-C72, N-Hydroxy-2-(4-(3-(4-((2S)-hydroxy-3,3-dimethylbutoxy)-3-methylphenyl)pentan-3-yl)-2-methylphenoxy)acetamide], for which the antiproliferative potency entry in the series on SCC4 cells [1] is given as “low micromolar potency”. At VDR [5], the “binding of the VDR to the vitamin D response element in the proximal promoter of the CYP24 gene” value is reported as “induced binding of the VDR”. Moreover, at VDR [3], the “VDR agonist activity and potency” value is on record as “VDR agonists with similar potencies”.
